From the supplement of paper PMC7394473

Columns and labels:
Details in all cases: 72 h
U2OS [1] = experiment: GR50 (concentration giving GR = 0.5)
Experimental: (§1)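 U2OS cells treated with full dose titrations of drug; live and dead cells counted by STACK microscopy (mKate2 nuclei, SYTOX Green) at 72 h, biological triplicates. GR and FV dose responses were fitted with 4-parameter logistic models (GR lower bound -1). GRADE (0-100) is the rescaled angle of a linear fit of FV versus GR at doses with GR >= 0, giving the percentage of the response due to cell death.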

U2OS [2] = experiment: fractional viability (live cells / total cells); higher = less cell death
Experimental: (§2)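 U2OS::Nuc-mKate2 cells seeded in 96-well plates and treated with eight- to ten-point half-log or log dilutions of drug in the presence of 50 nM SYTOX Green. Live (mKate2+) and dead (SYTOX+) cells were counted by IncuCyte STACK live-cell microscopy at 72 h; biological triplicates. GR is the normalised growth-rate inhibition value (Hafner 2016; 1 = untreated growth, <0 = population shrinking). FV is live/(live+dead) cells, not normalised.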

U2OS [3] = experiment: drug GRADE (percent of response due to cell death) (% (0-100)); higher = more death-driven response
Experimental: as §1

U2OS [4] = experiment: normalized growth rate inhibition value (GR) relative to untreated cells (GR value (dimensionless, 1 = untreated growth)); higher = less growth inhibition
Experimental: as §2

U2OS [5] = experiment: GRmin (fitted minimal GR value at highest effect) (GR value (dimensionless)); higher = less efficacious
Experimental: as §1

SMILES | fractional viability (U2OS [2]; 0.00100578 µM) | fractional viability (U2OS [2]; 0.00317827 µM) | fractional viability (U2OS [2]; 0.0100433 µM) | fractional viability (U2OS [2]; 0.0317369 µM) | fractional viability (U2OS [2]; 0.100289 µM) | fractional viability (U2OS [2]; 0.316912 µM) | fractional viability (U2OS [2]; 1.00144 µM) | fractional viability (U2OS [2]; 3.16456 µM) | fractional viability (U2OS [2]; 10 µM) | drug GRADE (U2OS [3]) | normalized growth rate inhibition value (U2OS [4]; 0.00100578 µM) | normalized growth rate inhibition value (U2OS [4]; 0.00317827 µM) | normalized growth rate inhibition value (U2OS [4]; 0.0100433 µM) | normalized growth rate inhibition value (U2OS [4]; 0.0317369 µM) | normalized growth rate inhibition value (U2OS [4]; 0.100289 µM) | normalized growth rate inhibition value (U2OS [4]; 0.316912 µM) | normalized growth rate inhibition value (U2OS [4]; 1.00144 µM) | normalized growth rate inhibition value (U2OS [4]; 3.16456 µM) | normalized growth rate inhibition value (U2OS [4]; 10 µM) | fractional viability (U2OS [2]; 0.0316 µM) | further results
Cc1nc(-c2cn3c(n2)-c2ccc(-c4cnn(C(C)(C)C(N)=O)c4)cc2OCC3)n(C(C)C)n1 [Taselisib] | 0.987 | 0.983 | 0.979 | 0.973 | 0.964 | 0.952 | 0.959 | 0.937 | 0.856 | 24.5 | 1 | 0.924 | 0.852 | 0.765 | 0.83 | 0.69 | 0.669 | 0.604 | 0.389 |  | GR50 (U2OS [1]): 4.98 µM
CC1CCc2cc(F)cc3c(=O)c(C(=O)O)cn1c23 (configuration not stated) [Flumequine] |  |  |  |  |  |  |  |  | 0.977 |  |  |  |  |  |  |  |  |  | 1.1 | 0.971 | fractional viability (U2OS [2]; 0.01 µM): 0.98; fractional viability (U2OS [2]; 0.1 µM): 0.981; fractional viability (U2OS [2]; 0.316 µM): 0.977; fractional viability (U2OS [2]; 1 µM): 0.971; fractional viability (U2OS [2]; 3.16 µM): 0.974; fractional viability (U2OS [2]; 31.6 µM): 0.976; GRmin (U2OS [5]): 1; normalized growth rate inhibition value (U2OS [4]; 0.01 µM): 0.959; normalized growth rate inhibition value (U2OS [4]; 0.0316 µM): 1.02; normalized growth rate inhibition value (U2OS [4]; 0.1 µM): 0.966; normalized growth rate inhibition value (U2OS [4]; 0.316 µM): 0.928; normalized growth rate inhibition value (U2OS [4]; 1 µM): 0.907; normalized growth rate inhibition value (U2OS [4]; 3.16 µM): 0.962; normalized growth rate inhibition value (U2OS [4]; 31.6 µM): 0.969
COc1cc2c(Oc3ccc4[nH]c(C)cc4c3F)ncnc2cc1OCCCN1CCCC1 [Cediranib] | 0.987 | 0.986 | 0.986 | 0.988 | 0.986 | 0.987 | 0.974 | 0.966 | 0.686 | 55.1 | 0.951 | 1.04 | 1.11 | 1.04 | 0.987 | 1.07 | 0.861 | 0.837 | 0.308 |  | GR50 (U2OS [1]): 7.19 µM
Cc1nn(C)c(COc2ccc(N3CCN(S(=O)(=O)N(C)C)CC3)cc2)c1-c1cccc2c(CCCOc3cccc4ccccc34)c(C(=O)O)n(CCN3CCOCC3)c12 | 0.991 | 0.989 | 0.987 | 0.991 | 0.99 | 0.987 | 0.978 | 0.96 | 0.852 |  | 0.982 | 0.925 | 0.967 | 0.917 | 0.934 | 0.942 | 0.899 | 0.919 | 0.718 |  | 
CC[C@]1(O)C[C@@H]2CN(CCc3c([nH]c4ccccc34)[C@@](C(=O)OC)(c3cc4c(cc3OC)N(C)[C@H]3[C@@](O)(C(=O)OC)[C@H](OC(C)=O)[C@]5(CC)C=CCN6CC[C@]43[C@@H]65)C2)C1 [Vinblastine] |  |  |  |  |  |  |  |  |  | 3.36 |  |  |  |  |  |  |  |  |  | 0.5 | fractional viability (U2OS [2]; 0.00316 µM): 0.426; fractional viability (U2OS [2]; 0.316 µM): 0.467; fractional viability (U2OS [2]; 3.16 µM): 0.416; fractional viability (U2OS [2]; 31.6 µM): 0.166; normalized growth rate inhibition value (U2OS [4]; 0.00316 µM): 0.057; normalized growth rate inhibition value (U2OS [4]; 0.0316 µM): 0.0629; normalized growth rate inhibition value (U2OS [4]; 0.316 µM): 0.0107; normalized growth rate inhibition value (U2OS [4]; 3.16 µM): -0.0225; normalized growth rate inhibition value (U2OS [4]; 31.6 µM): -0.258
C=CCc1ccc(O)c(-c2ccc(O)c(CC=C)c2)c1 [Honokiol] |  |  |  |  |  |  |  |  | 0.981 |  |  |  |  |  |  |  |  |  | 0.95 | 0.974 | fractional viability (U2OS [2]; 0.01 µM): 0.978; fractional viability (U2OS [2]; 0.1 µM): 0.978; fractional viability (U2OS [2]; 0.316 µM): 0.983; fractional viability (U2OS [2]; 1 µM): 0.978; fractional viability (U2OS [2]; 3.16 µM): 0.979; fractional viability (U2OS [2]; 31.6 µM): 0.969; normalized growth rate inhibition value (U2OS [4]; 0.01 µM): 1.04; normalized growth rate inhibition value (U2OS [4]; 0.0316 µM): 1.07; normalized growth rate inhibition value (U2OS [4]; 0.1 µM): 0.96; normalized growth rate inhibition value (U2OS [4]; 0.316 µM): 1.03; normalized growth rate inhibition value (U2OS [4]; 1 µM): 0.897; normalized growth rate inhibition value (U2OS [4]; 3.16 µM): 0.981; normalized growth rate inhibition value (U2OS [4]; 31.6 µM): 0.774
CN(C)/N=N/c1[nH]cnc1C(N)=O [Dacarbazine] |  |  |  |  |  |  |  |  | 0.942 |  |  |  |  |  |  |  |  |  | 0.837 | 0.984 | fractional viability (U2OS [2]; 0.01 µM): 0.975; fractional viability (U2OS [2]; 0.1 µM): 0.974; fractional viability (U2OS [2]; 0.316 µM): 0.978; fractional viability (U2OS [2]; 1 µM): 0.975; fractional viability (U2OS [2]; 3.16 µM): 0.964; fractional viability (U2OS [2]; 31.6 µM): 0.926; GRmin (U2OS [5]): 0.749; normalized growth rate inhibition value (U2OS [4]; 0.01 µM): 1.08; normalized growth rate inhibition value (U2OS [4]; 0.0316 µM): 1.01; normalized growth rate inhibition value (U2OS [4]; 0.1 µM): 0.899; normalized growth rate inhibition value (U2OS [4]; 0.316 µM): 0.939; normalized growth rate inhibition value (U2OS [4]; 1 µM): 0.934; normalized growth rate inhibition value (U2OS [4]; 3.16 µM): 0.821; normalized growth rate inhibition value (U2OS [4]; 31.6 µM): 0.769
Cc1nc(NC(=O)N2CCC[C@H]2C(N)=O)sc1-c1ccnc(C(C)(C)C(F)(F)F)c1 [Alpelisib] | 0.986 | 0.987 | 0.987 | 0.985 | 0.982 | 0.98 | 0.971 | 0.965 | 0.938 | 9 | 0.96 | 0.922 | 0.922 | 0.903 | 0.836 | 0.752 | 0.794 | 0.79 | 0.693 |  | GRmin (U2OS [5]): 0.695
CC(=O)Nc1cccc(-n2c(=O)n(C3CC3)c(=O)c3c(Nc4ccc(I)cc4F)n(C)c(=O)c(C)c32)c1 [Trametinib] |  |  |  |  |  |  |  |  |  |  |  |  |  |  |  |  |  |  |  |  | fractional viability (U2OS [2]; 0.000100578 µM): 0.978; fractional viability (U2OS [2]; 0.000317827 µM): 0.974; fractional viability (U2OS [2]; 0.00100433 µM): 0.965; fractional viability (U2OS [2]; 0.00317369 µM): 0.951; fractional viability (U2OS [2]; 0.0100289 µM): 0.915; fractional viability (U2OS [2]; 0.0316912 µM): 0.732; fractional viability (U2OS [2]; 0.100144 µM): 0.524; fractional viability (U2OS [2]; 0.316456 µM): 0.442; fractional viability (U2OS [2]; 1 µM): 0.466; normalized growth rate inhibition value (U2OS [4]; 0.000100578 µM): 0.839; normalized growth rate inhibition value (U2OS [4]; 0.000317827 µM): 0.677; normalized growth rate inhibition value (U2OS [4]; 0.00100433 µM): 0.696; normalized growth rate inhibition value (U2OS [4]; 0.00317369 µM): 0.569; normalized growth rate inhibition value (U2OS [4]; 0.0100289 µM): 0.582; normalized growth rate inhibition value (U2OS [4]; 0.0316912 µM): 0.319; normalized growth rate inhibition value (U2OS [4]; 0.100144 µM): 0.0761; normalized growth rate inhibition value (U2OS [4]; 0.316456 µM): 0.0524; normalized growth rate inhibition value (U2OS [4]; 1 µM): 0.0402
